Columns and labels:
[1] = biological target: Cyclin-dependent kinase 6 (Homo sapiens) (UniProt Q00534); assay: Inhibition of human recombinant CDK6 at 500 nM related to control ULK1
[2] = biological target: T1, Serine/threonine-protein kinase TAO2 (Homo sapiens) (UniProt Q9UL54); assay: Inhibition of human recombinant TAO2 at 15 nM related to control ULK1
T1 sequence (whole entry): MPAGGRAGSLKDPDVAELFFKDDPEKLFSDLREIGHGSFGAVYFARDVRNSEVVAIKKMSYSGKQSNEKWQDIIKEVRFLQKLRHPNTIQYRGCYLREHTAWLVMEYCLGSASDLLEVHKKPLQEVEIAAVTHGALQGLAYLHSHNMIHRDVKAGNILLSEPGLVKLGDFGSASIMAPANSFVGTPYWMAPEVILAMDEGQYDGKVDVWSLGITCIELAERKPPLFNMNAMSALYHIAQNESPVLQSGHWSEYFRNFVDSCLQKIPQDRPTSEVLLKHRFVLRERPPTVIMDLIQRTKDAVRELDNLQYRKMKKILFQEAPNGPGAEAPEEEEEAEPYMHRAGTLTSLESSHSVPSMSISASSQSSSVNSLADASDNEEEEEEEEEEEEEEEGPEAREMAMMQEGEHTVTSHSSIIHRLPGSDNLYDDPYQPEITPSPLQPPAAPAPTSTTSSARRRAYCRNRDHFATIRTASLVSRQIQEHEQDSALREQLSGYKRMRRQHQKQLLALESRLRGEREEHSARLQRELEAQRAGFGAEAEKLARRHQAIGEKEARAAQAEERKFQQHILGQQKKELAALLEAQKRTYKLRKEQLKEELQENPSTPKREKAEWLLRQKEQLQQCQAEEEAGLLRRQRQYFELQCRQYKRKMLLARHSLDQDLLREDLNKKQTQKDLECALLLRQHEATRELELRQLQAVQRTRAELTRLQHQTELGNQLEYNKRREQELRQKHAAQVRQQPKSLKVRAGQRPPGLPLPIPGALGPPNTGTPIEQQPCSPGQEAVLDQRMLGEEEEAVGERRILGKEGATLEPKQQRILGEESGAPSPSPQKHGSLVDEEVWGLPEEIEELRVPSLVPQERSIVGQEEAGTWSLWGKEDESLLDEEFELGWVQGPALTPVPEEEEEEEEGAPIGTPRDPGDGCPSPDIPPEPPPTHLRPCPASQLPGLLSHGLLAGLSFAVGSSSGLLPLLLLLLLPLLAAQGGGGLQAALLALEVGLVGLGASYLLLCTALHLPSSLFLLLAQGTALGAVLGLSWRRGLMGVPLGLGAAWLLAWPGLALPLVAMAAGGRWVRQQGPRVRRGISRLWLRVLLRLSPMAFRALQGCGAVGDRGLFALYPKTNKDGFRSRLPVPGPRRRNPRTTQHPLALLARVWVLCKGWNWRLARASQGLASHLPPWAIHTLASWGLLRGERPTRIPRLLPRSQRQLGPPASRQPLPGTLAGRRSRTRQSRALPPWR

[3] = biological target: T2, Mitogen-activated protein kinase kinase kinase 5 (Homo sapiens) (UniProt Q99683); assay: Inhibition of human recombinant MAP3K5 at 40 nM related to control ULK1
T2 sequence (whole entry): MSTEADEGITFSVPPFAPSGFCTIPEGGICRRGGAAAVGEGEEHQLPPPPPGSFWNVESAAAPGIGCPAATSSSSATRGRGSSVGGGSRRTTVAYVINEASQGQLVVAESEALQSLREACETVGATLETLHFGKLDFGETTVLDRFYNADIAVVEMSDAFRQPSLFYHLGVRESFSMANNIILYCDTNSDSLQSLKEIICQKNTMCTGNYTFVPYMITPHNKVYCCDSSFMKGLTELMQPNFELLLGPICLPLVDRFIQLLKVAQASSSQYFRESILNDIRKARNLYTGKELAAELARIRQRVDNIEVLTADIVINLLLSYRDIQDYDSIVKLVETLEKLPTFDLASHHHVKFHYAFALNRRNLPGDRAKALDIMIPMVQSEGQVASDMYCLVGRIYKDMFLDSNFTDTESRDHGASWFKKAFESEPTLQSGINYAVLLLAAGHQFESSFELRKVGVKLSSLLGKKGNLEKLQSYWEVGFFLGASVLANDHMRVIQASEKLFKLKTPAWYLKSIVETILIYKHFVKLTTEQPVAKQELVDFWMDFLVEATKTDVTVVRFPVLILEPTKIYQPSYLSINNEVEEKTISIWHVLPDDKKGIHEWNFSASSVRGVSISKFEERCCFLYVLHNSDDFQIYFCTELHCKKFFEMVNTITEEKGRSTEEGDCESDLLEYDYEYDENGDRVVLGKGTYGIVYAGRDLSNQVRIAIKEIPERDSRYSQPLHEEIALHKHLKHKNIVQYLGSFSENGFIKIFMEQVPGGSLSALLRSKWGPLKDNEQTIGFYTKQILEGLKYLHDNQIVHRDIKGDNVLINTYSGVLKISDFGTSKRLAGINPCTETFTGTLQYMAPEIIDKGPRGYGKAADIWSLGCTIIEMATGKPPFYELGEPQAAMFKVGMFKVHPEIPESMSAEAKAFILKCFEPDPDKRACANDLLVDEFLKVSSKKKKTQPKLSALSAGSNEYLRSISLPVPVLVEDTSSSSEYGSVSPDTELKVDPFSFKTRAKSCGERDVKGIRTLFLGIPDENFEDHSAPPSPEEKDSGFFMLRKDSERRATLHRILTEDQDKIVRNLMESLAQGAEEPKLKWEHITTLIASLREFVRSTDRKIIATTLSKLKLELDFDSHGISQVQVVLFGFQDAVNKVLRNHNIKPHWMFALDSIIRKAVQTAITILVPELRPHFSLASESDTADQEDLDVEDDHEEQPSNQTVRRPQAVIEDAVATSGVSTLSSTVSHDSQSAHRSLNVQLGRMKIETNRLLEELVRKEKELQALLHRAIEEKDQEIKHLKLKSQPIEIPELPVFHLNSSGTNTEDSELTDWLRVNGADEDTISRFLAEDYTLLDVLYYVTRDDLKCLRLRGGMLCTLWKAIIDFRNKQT

Sequence of Cyclin-dependent kinase 6 (Homo sapiens) (Q00534 whole entry): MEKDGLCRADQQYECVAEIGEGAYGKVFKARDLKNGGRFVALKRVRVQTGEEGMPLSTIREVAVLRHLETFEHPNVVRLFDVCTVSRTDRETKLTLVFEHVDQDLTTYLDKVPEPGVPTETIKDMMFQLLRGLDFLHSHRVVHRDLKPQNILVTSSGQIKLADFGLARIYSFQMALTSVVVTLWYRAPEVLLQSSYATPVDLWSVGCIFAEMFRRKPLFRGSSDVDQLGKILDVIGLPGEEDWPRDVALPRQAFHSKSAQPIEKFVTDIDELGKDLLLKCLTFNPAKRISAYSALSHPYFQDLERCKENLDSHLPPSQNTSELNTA

In the case of `CNC(=O)c1ccccc1Oc1nc(Nc2cc(OC)c(OC)c(OC)c2)ncc1Br`, the fold change (FC) [1] is reported as 0.
`CC(C)[C@H](NC(=O)c1cc(-c2cnn3cc(-c4ccc(OCCN5CCCCC5)cc4)cnc23)cs1)C(F)(F)F` showed a fold change (FC) [2] of 0.
`O=C(N[C@@H](C1CC1)C(F)(F)F)c1cc(-c2cnn3cc(-c4ccc(F)cc4)cnc23)cs1` gave a fold change (FC) [3] of 0.

Reference: ChEMBL document CHEMBL5653631, “A Potent and Selective ULK1 Inhibitor Suppresses Autophagy and Sensitizes Cancer Cells to Nutrient Stress” (iScience, 2018)
